According to publication PMC4335062, “Data-Driven Prediction and Design of bZIP Coiled-Coil Interactions” (PLoS Computational Biology, 2015):
Read-outs that look alike come from different tables or passages of the source. Where no end group is shown, it is not given here.

What was measured:
Experiment in all cases: Direct-binding FRET assay
CREB3 = biological target: T1, CREB3 (Homo sapiens, UniProt O43889)
T1 construct: made in house
T1 sequence (O43889 150-213 limits assumed): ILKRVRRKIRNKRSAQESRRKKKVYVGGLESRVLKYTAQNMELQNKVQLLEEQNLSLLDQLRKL
Summary of the method: (§1)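 2-fold acceptor titration in 1 mM TCEP-HCl (4 μM stock); donor fluorescence read. Kd fitted by simulating homo/heterodimer equilibria; fits required ≥15% donor signal change over 0–1000 nM acceptor, else "NS".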

DBP = biological target: T2, DBP (Homo sapiens, UniProt Q10586); details: Kd
T2 construct: made in house
T2 sequence (Q10586 255-318 limits assumed): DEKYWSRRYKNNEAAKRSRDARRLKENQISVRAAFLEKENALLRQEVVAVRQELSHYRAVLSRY
Summary of the method: as §1

JUNB = biological target: T3, JUNB (Homo sapiens, UniProt P17275); details: Kd, mean or single
T3 construct: made in house
T3 sequence (P17275 268-331 limits assumed): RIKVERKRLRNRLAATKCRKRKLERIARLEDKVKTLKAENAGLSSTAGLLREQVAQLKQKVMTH
Summary of the method: as §1

NFE2L2 = biological target: T4, NFE2L2 (Homo sapiens, UniProt Q16236); details: Kd
T4 construct: made in house
T4 sequence (Q16236 497-560 limits assumed): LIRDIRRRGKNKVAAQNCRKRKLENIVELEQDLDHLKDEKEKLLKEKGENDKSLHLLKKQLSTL
Summary of the method: as §1

NFIL3 = biological target: T5, NFIL3 (Homo sapiens, UniProt Q16649)
T5 construct: made in house
T5 sequence (Q16649 73-136 limits assumed): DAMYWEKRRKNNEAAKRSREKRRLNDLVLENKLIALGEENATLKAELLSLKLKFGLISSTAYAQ
Summary of the method: as §1

ATF6B = ATF6B (Homo sapiens, UniProt Q99941); parameters: made in house; details: Kd
Description: (§2) The direct binding assay was performed manually in 384-well plates and is similar to a previously described assay. Wells were filled with 20 μL of 1 mM TCEP-HCl. A 4 μM stock of acceptor protein was made fresh in 1 mM TCEP-HCl, and 20 μL was titrated in 2-fold dilutions over the wells. […] The direct-binding FRET data were fit as previously described. Briefly, the Kd of the designed peptide homodimer was experimentally determined and used with previously determined target homodimer Kd values to determine the heterodimer Kd. The homodimer Kd values used for the human bZIPs were from; experiments done by […] et al. used the same protein constructs for the human bZIP proteins, the same buffer conditions, and the same assay. The fitting used a system of ordinary differential equations to describe the concentrations of homo and heterodimers formed by the donor (D) and acceptor (A) as a function of the heterodimer Kd. MATLAB was used to simulate the binding experiment for different Kd values, and the value that gave the best agreement between simulation and experiment was assigned. A minimum 15% change in the donor fluorescence upon titrating the acceptor peptide from 0 to 1000 nM was required for a fit to be attempted. If this minimum was not met, the interaction was classified as “NS” for no signal change. […] For such curves, we removed the first five points and re-fit the data.

FOS = FOS (Homo sapiens, UniProt P01100); parameters: made in house
Description: as §2

JUN = JUN (Homo sapiens, UniProt P05412); parameters: made in house; details: Kd
Description: as §2

MAFG = MAFG (Homo sapiens, UniProt O15525); parameters: made in house
Description: as §2

[1] = 4°C, C-terminal rhodamine design, mean or single
[2] = 4°C, N-terminal rhodamine design, mean or single
[3] = 23°C, C-terminal rhodamine design, mean or single
[4] = 23°C, N-terminal rhodamine design, mean or single
[5] = 37°C, N-terminal rhodamine design, mean or single
[6] = 4°C, C-terminal fluorescein design as donor, TAMRA target titrated
[7] = 23°C, C-terminal fluorescein design as donor, TAMRA target titrated
[8] = 37°C, C-terminal fluorescein design as donor, TAMRA target titrated
[9] = 37°C, C-terminal rhodamine design, mean or single
[10] = 4°C, C-terminal rhodamine design, repeat 1
[11] = 23°C, C-terminal rhodamine design, repeat 1

FOS, sequence (P01100 137-200 limits assumed): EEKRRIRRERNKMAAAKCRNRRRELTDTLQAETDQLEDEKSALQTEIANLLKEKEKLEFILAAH
MAFG, sequence (O15525 51-114 limits assumed): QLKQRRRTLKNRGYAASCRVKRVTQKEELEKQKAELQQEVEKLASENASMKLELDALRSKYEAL
ATF6B, sequence (Q99941 325-388 limits assumed): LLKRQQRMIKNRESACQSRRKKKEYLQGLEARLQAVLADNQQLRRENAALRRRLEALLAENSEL

**Q.** Which results are given for “SIAATLEKEEANLEKMNKKLAAEIESLLKEKDKLESVLNYHE [JUN-d1]”?
**A.** Kd (CREB3): > 1000 nM; Kd (CREB3; [1]): > 1000 nM; Kd (CREB3; [2]): > 1000 nM; Kd (CREB3; [3]): > 1000 nM; Kd (CREB3; [4]): > 1000 nM; Kd (CREB3; [5]): > 1000 nM; Kd (DBP; [6]): > 1000 nM; Kd (DBP; [1]): > 5000 nM; Kd (DBP; [2]): > 1000 nM; Kd (DBP; [7]): > 1000 nM; Kd (DBP; [3]): > 5000 nM; Kd (DBP; [4]): > 1000 nM; Kd (DBP; [8]): > 1000 nM; Kd (DBP; [9]): > 1000 nM; Kd (DBP; [5]): > 1000 nM; Kd (JUNB; 4°C, C-terminal rhodamine design): 1 nM; Kd (JUNB; 4°C, N-terminal rhodamine design): 2.7 nM; Kd (JUNB; 23°C, C-terminal rhodamine design): 8.4 nM; Kd (JUNB; 23°C, N-terminal rhodamine design): 53 nM; Kd (JUNB; 37°C, C-terminal rhodamine design): 51 nM; Kd (JUNB; 37°C, N-terminal rhodamine design): 850 nM; Kd (NFE2L2; [6]): > 1000 nM; Kd (NFE2L2; [1]): > 1000 nM; Kd (NFE2L2; [2]): > 1000 nM; Kd (NFE2L2; [7]): > 1000 nM; Kd (NFE2L2; [3]): > 1000 nM; Kd (NFE2L2; [4]): > 1000 nM; Kd (NFE2L2; [8]): > 1000 nM; Kd (NFE2L2; [9]): > 5000 nM; Kd (NFE2L2; [5]): > 1000 nM; Kd (NFIL3): > 1000 nM; Kd (NFIL3; [6]): > 1000 nM; Kd (NFIL3; [1]): > 1000 nM; Kd (NFIL3; [2]): > 1000 nM; Kd (NFIL3; [7]): > 1000 nM; Kd (NFIL3; [3]): > 1000 nM; Kd (NFIL3; [4]): > 1000 nM; Kd (NFIL3; [8]): > 1000 nM; Kd (NFIL3; [5]): > 1000 nM; Kd (ATF6B; [6]): 200 to 1000 nM; Kd (ATF6B; [10]): > 1000 nM; Kd (ATF6B; [2]): > 1000 nM; Kd (ATF6B; [7]): > 1000 nM; Kd (ATF6B; [11]): > 1000 nM; Kd (ATF6B; [4]): > 1000 nM; Kd (ATF6B; [8]): > 1000 nM; Kd (ATF6B; 37°C, C-terminal rhodamine design, repeat 1): > 1000 nM; Kd (ATF6B; [5]): > 1000 nM; Kd (FOS): > 1000 nM; Kd (FOS; [6]): > 1000 nM; Kd (FOS; [2]): > 1000 nM; Kd (FOS; [7]): > 1000 nM; Kd (FOS; [11]): > 1000 nM; Kd (FOS; [4]): > 1000 nM; Kd (FOS; [8]): > 1000 nM; Kd (FOS; [5]): > 1000 nM; Kd (JUN; [6]): 2.1 nM; Kd (JUN; [1]): 1 nM; Kd (JUN; [8]): 16.1 nM; Kd (MAFG): > 1000 nM; Kd (MAFG; [10]): > 1000 nM; Kd (MAFG; [2]): > 1000 nM; Kd (MAFG; [11]): > 1000 nM; Kd (MAFG; [4]): > 1000 nM; Kd (MAFG; [5]): > 1000 nM
